Results on 13 substances are retold here after patent US7160685B2, “Diagnostic reagents for human cytomegalovirus and methods of use” (priority 1996, dated 2007).

The test system of assay [1] is peptide-loaded T2 cells, EBVLCL targets infected with pp65Vac, and HCMV-infected fibroblasts. The assay is described as follows: lipidated peptides with and without IFA in transgenic HLA A2.1 mouse, CRA. In kind it is in vivo. The settings on record: peptide together with PADRE, with versus without emulsification in IFA. The procedure:
Either one or two palmitic acid moieties were attached to the amino terminus of the 495 peptide, and a series of immunization studies were conducted in the transgenic HLA A2.1 mouse.
Separate mice were immunized with unmodified pp65495-503, and either the monolipidated or dilipidated forms of the peptide together with the PADRE epitope. Because it has been previously shown that lipidated peptides will stimulate immunity without co-administration of Freund's adjuvant (H. Schild et al., Eur. J. Immunol. 21:2649–2654 (1991)), immunization of mice with and without emulsifying the peptides in IFA was compared. In a procedure similar to the procedure described in Example 9 above, twelve days post inoculation the mice were splenectomized and the spleen cell population was restimulated twice in vitro. The splenic effectors were then tested in a chromium release assay with peptide-loaded T2 cells, EBVLCL targets infected with pp65Vac, and HCMV-infected fibroblasts (D. J. Diamond et al., Blood 90 (5):1751–1767 (1997)). […] (See FIGS. 1–3)

Assay [2] deals with peptide-sensitized targets. Put plainly: single component lipid-HTL-CTL vaccine in transgenic HLA A2.1 mice, peptide-sensitized targets. Type of assay: in vivo, mouse. As to conditions: for lysis of p53149-157 sensitized targets by spleen cells of immunized mice / lysis of pp65495-503 peptide sensitized targets by spleen cells of immunized mice: 100 nmoles s.c. in 25% DMSO/PBS with 2.5% hexafluoroisopropanol. The procedure:
(§1) Molecule A (SEQ ID NO:37) is a vaccine that has the capability of working in mice and humans, whereas molecule B (SEQ ID NO:38) should only be functional in mice. One hundred nanomoles of each of these vaccine peptides in 25% dimethysulfoxide in phosphate buffered saline with 2.5% hexafluoroisopropanol were injected s.c. into separate transgenic HLA A2.1 mice.
(§2) The methods referred to in Examples 9 and 10 were used to derive spleen cell populations containing cells which were specific against pp65 and HCMV. The spleen cells from immunized mice were tested for recognition and cytolysis against specific and non-specific peptide-sensitized targets, HCMV infected and non-infected HLA A*0201 and HLA-mismatched fibroblast targets. […] This stimulative effect of the booster is in agreement with B. Livingston et al., J. Immunol. 159:1383–1392 (1997)).

The test system of assay [3] is HCMV infected and non-infected HLA A*0201 and HLA-mismatched fibroblast targets. Put plainly: single component lipid-HTL-CTL vaccine in transgenic HLA A2.1 mice, fibroblast targets. In kind it is in vivo, mouse. The settings on record: 100 nmoles s.c., no adjuvant. The procedure: as §1, §2
For the next assay, the system named is HLA A or B Allele. In kind it is cell-based, human. As to conditions: for HLA A or B Allele Specificity: and subtypes where given.
The next assay concerns peptide loaded T2 cells. The assay is described as follows: immunization of HLA A2.1 transgenic mice, splenic effectors tested on peptide loaded T2 cells. Type of assay: in vivo, mouse. The settings on record: 50 μg peptide with 20 μg PADRE in IFA s.c., two in vitro restimulation cycles. The source says:
A transgenic mouse model lacking prior HCMV exposure, the HLA A2.1 mouse (E. J. Bernhard et al., J. Exp. Med. 168:1157–1162 (1988)), was employed to test whether the 495 peptide could stimulate CTLs lacking prior virus exposure and function as a vaccine. These experiments involved in vitro analysis using mouse and human cell targets, either infected with viruses or primed with the peptide of SEQ ID NO:1 or a non-specific control peptide.
Three mice were immunized subcutaneously at the base of the tail with 50 μg of the 495 peptide (pp65495-503) or peptide p53149-157 from p53 (M. Theobald et al., Proc. Natl. Acad. Sci. U.S.A. 92:11993–11997 (1995)) together with 20 μg of the polyclonal helper T lymphocyte (HTL) peptide (PADRE; SEQ ID NO:29) (J. Alexander et al., Immunity. 1:751–761 (1994)) emulsified in IFA (Incomplete Freund's Adjuvant). After twelve days, spleens were removed from immunized mice, a splenic suspension was made, and the effector cells were restimulated for one week using p53149-157 or pp65495-503 peptide sensitized syngeneic lipopolysaccharide-treated splenic blast cells (P. A. Wentworth et al., Eur. J. Immunol. 26:97–101 (1996)). Thereafter, for subsequent in vitro stimulations, the stimulator cells were Jurkat A2.1 cells, prepared by mild acid treatment and subsequent loading of peptides (Z. Yu et al., Journal of Surgical Research 69:337–343 (1997)). […]

Where no end group is shown, it is not given here. [ ]: non-standard residue; d: D form. The star is where a group is joined. Palmitoyl = CCCCCCCCCCCCCCCC(=O)*; Cha = N[C@@H](CC1CCCCC1)C(=O)O

As for “1 PALMITIC ACID-KSS-NLVPMVATV-OH (Palmitoyl-KSSNLVPMVATV-OH; SMILES CCCCCCCCCCCCCCCC(=O)N[C@@H](CCCCN)C(=O)N[C@@H](CO)C(=O)N[C@@H](CO)C(=O)N[C@@H](CC(N)=O)C(=O)N[C@@H](CC(C)C)C(=O)N[C@H](C(=O)N1CCC[C@H]1C(=O)N[C@@H](CCSC)C(=O)N[C@H](C(=O)N[C@@H](C)C(=O)N[C@H](C(=O)N[C@H](C(=O)O)C(C)C)[C@@H](C)O)C(C)C)C(C)C) [SEQ ID NO:31]”, the “immune response induced (CRA of splenic effectors)” value in assay [1] is “weaker immune response”.
As to “(Pam)2-KSSAKXVAAWTLKAAANLVPMVATV (KSSAK[Cha]VAAWTLKAAANLVPMVATV; not fully specified (residue 1, N-terminus); printed as (Pam)2-KSSAKXVAAWTLKAAANLVPMVATV; also: (Pam)2- two palmitoyl groups at N-terminal end, attachment not given here) [SEQ ID NO:37]”, the “immune response after single immunization” value in assay [2] (50 nmole, single immunization) is reported as “not effective”. The “immune response after second immunization (booster)” value in assay [2] (50 nmole, with booster) is recorded as “detectable immune response”. In addition, in assay [2] (no adjuvant), the “lysis of p53149-157 sensitized targets by spleen cells of immunized mice” value is “ineffective” and the “lysis of pp65495-503 peptide sensitized targets by spleen cells of immunized mice” value is recorded as “effectively lysed”. Also, the “relative potency of molecules A and B” value in assay [2] (100 nmoles s.c., no adjuvant) is given as “more potent of the two”. For the same substance, in assay [3], the “lysis of HCMV-infected HLA A*0201 fibroblasts” value was “effectively lysed” and the “lysis of uninfected or HLA-mismatched fibroblasts” value is on record as “not recognized or lysed”.
Turning to “(Pam)2-KSSISQAVHAAHAEINEAAANLVPMVATV (also: two palmitoyl groups on the N-terminal lysine, exact amine positions not given here) [SEQ ID NO:38]”, in assay [2] (no adjuvant), the “lysis of p53149-157 sensitized targets by spleen cells of immunized mice” value is “ineffective” and the “lysis of pp65495-503 peptide sensitized targets by spleen cells of immunized mice” value is “effectively lysed”. Further, in assay [3], the “lysis of HCMV-infected HLA A*0201 fibroblasts” value was “effectively lysed” and the “lysis of uninfected or HLA-mismatched fibroblasts” value is on record as “not recognized or lysed”.
On to “EFFWDANDIY (listed as Human cytomegalovirus) [SEQ ID NO: 13]”, for which, in the assay with HLA A or B Allele, the “Number of Test Cell Lines (independent cell lines of the same restriction which were sensitized)” value was determined as 2 and the “HLA A or B Allele Specificity” value is recorded as “HLA B*44XX”.
The matching figures for FPTKDVAL [SEQ ID NO: 9]: 3 and “HLA B*3502,”.
The matching figures for “FTSQYRIQGKL (listed as Human cytomegalovirus) [SEQ ID NO: 14]”: 4 and “HLA A*2402”.
The matching figures for “FVFPTKDVALR (listed as Human cytomegalovirus) [SEQ ID NO: 5]”: 3 and “HLA A*6801”.
For “KSS-NLVPMVATV-OH (KSSNLVPMVATV-OH) [SEQ ID NO:30]”, the “immune response induced (CRA of splenic effectors)” value in assay [1] is given as “no activity unless emulsified in IFA”.
As for “PTFTSQYRIQGKL (listed as Human cytomegalovirus) [SEQ ID NO: 12]”, in the assay with HLA A or B Allele, the “Number of Test Cell Lines (independent cell lines of the same restriction which were sensitized)” value worked out at 3 and the “HLA A or B Allele Specificity” value is “HLA B*3801/2”.
The matching figures for “RPHERNGFTVL (listed as Human cytomegalovirus) [SEQ ID NO: 10]”: 5 and “HLA B7”.
The matching figures for SVLGPISGHVLK [SEQ ID NO: 11]: 5 and “HLA A*1101”.
The matching figures for “TPRVTGGGAM (listed as Human cytomegalovirus) [SEQ ID NO: 7]”: 5 and “HLA B7”.
As to “p53149-157: peptide p53149-157 from human p53 which binds to HLA A*0201, control peptide (STPPPGTRV; UniProt P04637 149-157, looked up, fragment)”, in the assay with peptide loaded T2 cells, the “recognition of T2 cells loaded with the immunizing peptide by murine splenic effectors” value is “substantial recognition” and the “recognition of T2 cells loaded with the non-immunizing peptide” value is reported as “without recognition of the non-immunizing peptide”.
